Test results as given in PubChem BioAssay AID1963439 (Molecular Pharmacology Branch, DTP, NCI, 2024).

Tested on: NCI-H196 complex spheroids with HUVEC/MSC, growth % T/C
Assay: Anticancer human tumor NCI-H196 cell line growth inhibition [Asc];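 further: spheroids exposed to compound for 7 days before measurement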;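 on viability, T/C: 100% = DMSO vehicle control wells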
Details: for IC50: curve of first compound; for viability, T/C: stronger effect = lower value
Outline: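 Tumor cells were grown as complex spheroids with human endothelial cells (HUVEC) and human mesenchymal stem cells as stroma. Agents were tested alone and in combination, in half-log steps down from the clinical Cmax, or from 10 microM where Cmax was unknown.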

[1] = second compound 0.01 µM, first compound 0.00316 µM
[2] = second compound 0.01 µM, first compound 0.01 µM
[3] = second compound 0.01 µM, first compound 0.0316 µM
[4] = second compound 0.01 µM, first compound 0.1 µM
[5] = second compound 0.0316 µM, first compound 0.00316 µM
[6] = second compound 0.0316 µM, first compound 0.01 µM
[7] = second compound 0.0316 µM, first compound 0.0316 µM
[8] = second compound 0.0316 µM, first compound 0.1 µM
[9] = second compound 0.1 µM, first compound 0.00316 µM
[10] = second compound 0.1 µM, first compound 0.01 µM
[11] = second compound 0.1 µM, first compound 0.0316 µM
[12] = second compound 0.1 µM, first compound 0.1 µM
[13] = second compound 0.316 µM, first compound 0.00316 µM
[14] = second compound 0.316 µM, first compound 0.01 µM
[15] = second compound 0.316 µM, first compound 0.0316 µM
[16] = second compound 0.316 µM, first compound 0.1 µM
[17] = second compound 1 µM, first compound 0.00316 µM
[18] = second compound 1 µM, first compound 0.01 µM
[19] = second compound 1 µM, first compound 0.0316 µM
[20] = second compound 1 µM, first compound 0.1 µM

Which results are given for COc1c(OCCCN2CCOCC2)ccc2c3n(c(=NC(=O)c4cnc(N)nc4)nc12)CCN3 + CNC(C)C(=O)NC1CN(S(=O)(=O)c2cccc(S(=O)(=O)N3CCC4CCC(C(=O)NC(c5ccccc5)c5ccccc5)N4C(=O)C(NC(=O)C(C)NC)C3)c2)CCC2CCC(C(=O)NC(c3ccccc3)c3ccccc3)N2C1=O?
IC50 (second compound 0.01 µM): < 3160 pM; IC50 (second compound 0.0316 µM): < 3160 pM; IC50 (second compound 0.1 µM): < 3160 pM; IC50 (second compound 0.316 µM): < 3160 pM; IC50 (second compound 1 µM): < 3160 pM; viability, T/C [1]: 5.54%; viability, T/C [2]: 4.98%; viability, T/C [3]: 5.78%; viability, T/C [4]: 6.94%; viability, T/C (second compound 0.01 µM, first compound 0.316 µM): 10.4%; viability, T/C (second compound 0.01 µM, first compound 1 µM): 12.5%; viability, T/C [5]: 4.98%; viability, T/C [6]: 5.47%; viability, T/C [7]: 4.38%; viability, T/C [8]: 4.6%; viability, T/C (second compound 0.0316 µM, first compound 0.316 µM): 5.64%; viability, T/C (second compound 0.0316 µM, first compound 1 µM): 9.69%; viability, T/C [9]: 2.54%; viability, T/C [10]: 3.24%; viability, T/C [11]: 3.31%; viability, T/C [12]: 2.53%; viability, T/C (second compound 0.1 µM, first compound 0.316 µM): 5.11%; viability, T/C (second compound 0.1 µM, first compound 1 µM): 4.24%; viability, T/C [13]: 3.55%; viability, T/C [14]: 2.22%; viability, T/C [15]: 1.86%; viability, T/C [16]: 3.02%; viability, T/C (second compound 0.316 µM, first compound 0.316 µM): 3.25%; viability, T/C (second compound 0.316 µM, first compound 1 µM): 3.07%; viability, T/C [17]: 2.39%; viability, T/C [18]: 2.16%; viability, T/C [19]: 2.41%; viability, T/C [20]: 2.12%; viability, T/C (second compound 1 µM, first compound 0.316 µM): 1.61%; viability, T/C (second compound 1 µM, first compound 1 µM): 2.15%

Which IC50 (second compound 0.01 µM) does the source give for NC(=O)C(=Cn1cnc(-c2cc(C(F)(F)F)cc(C(F)(F)F)c2)n1)c1cncnc1 + CNC(C)C(=O)NC1CN(S(=O)(=O)c2cccc(S(=O)(=O)N3CCC4CCC(C(=O)NC(c5ccccc5)c5ccccc5)N4C(=O)C(NC(=O)C(C)NC)C3)c2)CCC2CCC(C(=O)NC(c3ccccc3)c3ccccc3)N2C1=O here?
Its IC50 is under 949 pM.

What about the IC50 (second compound 0.0316 µM) of the same compound?
Its IC50 is under 949 pM.

And the IC50 (second compound 0.1 µM)?
Its IC50 is under 949 pM.

What about the IC50 (second compound 0.316 µM) of the same compound?
Its IC50 is under 949 pM.

And the IC50 (second compound 1 µM)?
Its IC50 is under 949 pM.

And the viability, T/C (second compound 0.01 µM, first compound 0.000949 µM)?
Its viability, T/C is 9.08%.

What about the viability, T/C (second compound 0.01 µM, first compound 0.003 µM) of the same compound?
The viability, T/C was 6.89%.

And the viability, T/C (second compound 0.01 µM, first compound 0.00949 µM)?
Its viability, T/C is 9.23%.

And the viability, T/C (second compound 0.01 µM, first compound 0.03 µM)?
The viability, T/C was 5%.

And the viability, T/C (second compound 0.01 µM, first compound 0.0949 µM)?
Its viability, T/C is 6.27%.

What about the viability, T/C (second compound 0.01 µM, first compound 0.3 µM) of the same compound?
Its viability, T/C is 3.41%.

What about the viability, T/C (second compound 0.0316 µM, first compound 0.000949 µM) of the same compound?
Its viability, T/C is 5.94%.

What about the viability, T/C (second compound 0.0316 µM, first compound 0.003 µM) of the same compound?
The viability, T/C was 4.91%.

And the viability, T/C (second compound 0.0316 µM, first compound 0.00949 µM)?
Its viability, T/C is 5.48%.

And the viability, T/C (second compound 0.0316 µM, first compound 0.03 µM)?
Its viability, T/C is 5.12%.

And the viability, T/C (second compound 0.0316 µM, first compound 0.0949 µM)?
The viability, T/C was 4.08%.

What about the viability, T/C (second compound 0.0316 µM, first compound 0.3 µM) of the same compound?
Its viability, T/C is 1.99%.

And the viability, T/C (second compound 0.1 µM, first compound 0.000949 µM)?
Its viability, T/C is 3.66%.

And the viability, T/C (second compound 0.1 µM, first compound 0.003 µM)?
The viability, T/C was 3.77%.

What about the viability, T/C (second compound 0.1 µM, first compound 0.00949 µM) of the same compound?
Its viability, T/C is 3.89%.

What about the viability, T/C (second compound 0.1 µM, first compound 0.03 µM) of the same compound?
The viability, T/C was 4.03%.

And the viability, T/C (second compound 0.1 µM, first compound 0.0949 µM)?
Its viability, T/C is 3.01%.

What about the viability, T/C (second compound 0.1 µM, first compound 0.3 µM) of the same compound?
The viability, T/C was 1.56%.

And the viability, T/C (second compound 0.316 µM, first compound 0.000949 µM)?
Its viability, T/C is 3.76%.

And the viability, T/C (second compound 0.316 µM, first compound 0.003 µM)?
Its viability, T/C is 2.6%.

What about the viability, T/C (second compound 0.316 µM, first compound 0.00949 µM) of the same compound?
Its viability, T/C is 3.46%.

What about the viability, T/C (second compound 0.316 µM, first compound 0.03 µM) of the same compound?
The viability, T/C was 3.21%.

What about the viability, T/C (second compound 0.316 µM, first compound 0.0949 µM) of the same compound?
The viability, T/C was 1.59%.

What about the viability, T/C (second compound 0.316 µM, first compound 0.3 µM) of the same compound?
The viability, T/C was 1.68%.

And the viability, T/C (second compound 1 µM, first compound 0.000949 µM)?
The viability, T/C was 2.91%.

And the viability, T/C (second compound 1 µM, first compound 0.003 µM)?
Its viability, T/C is 3.81%.

And the viability, T/C (second compound 1 µM, first compound 0.00949 µM)?
Its viability, T/C is 3.53%.

And the viability, T/C (second compound 1 µM, first compound 0.03 µM)?
The viability, T/C was 5.05%.

And the viability, T/C (second compound 1 µM, first compound 0.0949 µM)?
The viability, T/C was 2.15%.

And the viability, T/C (second compound 1 µM, first compound 0.3 µM)?
Its viability, T/C is 1.55%.

What does the source list for NC1CCC(NC2CC2c2ccccc2)CC1 (stereo not given) + CNC(C)C(=O)NC1CN(S(=O)(=O)c2cccc(S(=O)(=O)N3CCC4CCC(C(=O)NC(c5ccccc5)c5ccccc5)N4C(=O)C(NC(=O)C(C)NC)C3)c2)CCC2CCC(C(=O)NC(c3ccccc3)c3ccccc3)N2C1=O?
IC50 (second compound 0.01 µM): < 316 pM; IC50 (second compound 0.0316 µM): < 316 pM; IC50 (second compound 0.1 µM): < 316 pM; IC50 (second compound 0.316 µM): < 316 pM; IC50 (second compound 1 µM): < 316 pM; viability, T/C (second compound 0.01 µM, first compound 0.000316 µM): 4.85%; viability, T/C (second compound 0.01 µM, first compound 0.001 µM): 7.42%; viability, T/C [1]: 7.08%; viability, T/C [2]: 4.94%; viability, T/C [3]: 4.47%; viability, T/C [4]: 5.83%; viability, T/C (second compound 0.0316 µM, first compound 0.000316 µM): 3.28%; viability, T/C (second compound 0.0316 µM, first compound 0.001 µM): 3.9%; viability, T/C [5]: 6.09%; viability, T/C [6]: 4.65%; viability, T/C [7]: 4.22%; viability, T/C [8]: 4.12%; viability, T/C (second compound 0.1 µM, first compound 0.000316 µM): 3.22%; viability, T/C (second compound 0.1 µM, first compound 0.001 µM): 3.76%; viability, T/C [9]: 3.15%; viability, T/C [10]: 3.8%; viability, T/C [11]: 2.91%; viability, T/C [12]: 5.63%; viability, T/C (second compound 0.316 µM, first compound 0.000316 µM): 3.14%; viability, T/C (second compound 0.316 µM, first compound 0.001 µM): 3.25%; viability, T/C [13]: 3.34%; viability, T/C [14]: 2.68%; viability, T/C [15]: 2.82%; viability, T/C [16]: 2.95%; viability, T/C (second compound 1 µM, first compound 0.000316 µM): 3.04%; viability, T/C (second compound 1 µM, first compound 0.001 µM): 4.43%; viability, T/C [17]: 3.1%; viability, T/C [18]: 3.47%; viability, T/C [19]: 3.24%; viability, T/C [20]: 2.28%
